Values joined by “and” are separate entries in the source; they are usually repeats but may differ in a detail not shown here. Equal entries are not always repeated.

Experimental findings from paper PMC7044277 (Nature Communications, 2020) are described below.

Common to all, as to assay type: cell-based
Assay [1] concerns the target T1, 320 non-olfactory GPCRs (Homo sapiens, UniProt P25024).
T1 construct: expressed in transfected cells; host or cells: HTLA cells

Assay [2] concerns the target T2, 320 non-olfactory GPCRs (Homo sapiens, UniProt Q6U736).
T2 construct: expressed in transfected cells; host or cells: HTLA cells
The note with it: receptor OPN5; replicate values, Fig_4g.

For assay [3], the target named is T3, 320 non-olfactory GPCRs (Homo sapiens, UniProt Q86SQ4).
T3 construct: expressed in transfected cells; host or cells: HTLA cells

For assay [4], the target named is T4, 320 non-olfactory GPCRs (Homo sapiens, UniProt Q9HBW9).
T4 construct: expressed in transfected cells; host or cells: HTLA cells

The target in the next assay is T5, 5HT7A (Homo sapiens, UniProt P34969).
T5 construct: expressed in transfected cells; host or cells: HTLA cells expressing TEV-fused β-arrestin2
Kind of assay: β-arrestin2 recruitment (Tango). The settings on record: for concentration at which the receptor is activated: 5HT7A, agonist activity only at high concentrations; for β-arrestin2 recruitment response, replicate points of concentration-response curve: Fig_S10q, agonist mode.
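Throughout, for Fold of Basal: compound tested at 1 µM final concentration.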
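Throughout, for GPCRome agonism screen response: fold over basal response of each receptor without drug.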

T3 sequence (Q86SQ4 38-1221): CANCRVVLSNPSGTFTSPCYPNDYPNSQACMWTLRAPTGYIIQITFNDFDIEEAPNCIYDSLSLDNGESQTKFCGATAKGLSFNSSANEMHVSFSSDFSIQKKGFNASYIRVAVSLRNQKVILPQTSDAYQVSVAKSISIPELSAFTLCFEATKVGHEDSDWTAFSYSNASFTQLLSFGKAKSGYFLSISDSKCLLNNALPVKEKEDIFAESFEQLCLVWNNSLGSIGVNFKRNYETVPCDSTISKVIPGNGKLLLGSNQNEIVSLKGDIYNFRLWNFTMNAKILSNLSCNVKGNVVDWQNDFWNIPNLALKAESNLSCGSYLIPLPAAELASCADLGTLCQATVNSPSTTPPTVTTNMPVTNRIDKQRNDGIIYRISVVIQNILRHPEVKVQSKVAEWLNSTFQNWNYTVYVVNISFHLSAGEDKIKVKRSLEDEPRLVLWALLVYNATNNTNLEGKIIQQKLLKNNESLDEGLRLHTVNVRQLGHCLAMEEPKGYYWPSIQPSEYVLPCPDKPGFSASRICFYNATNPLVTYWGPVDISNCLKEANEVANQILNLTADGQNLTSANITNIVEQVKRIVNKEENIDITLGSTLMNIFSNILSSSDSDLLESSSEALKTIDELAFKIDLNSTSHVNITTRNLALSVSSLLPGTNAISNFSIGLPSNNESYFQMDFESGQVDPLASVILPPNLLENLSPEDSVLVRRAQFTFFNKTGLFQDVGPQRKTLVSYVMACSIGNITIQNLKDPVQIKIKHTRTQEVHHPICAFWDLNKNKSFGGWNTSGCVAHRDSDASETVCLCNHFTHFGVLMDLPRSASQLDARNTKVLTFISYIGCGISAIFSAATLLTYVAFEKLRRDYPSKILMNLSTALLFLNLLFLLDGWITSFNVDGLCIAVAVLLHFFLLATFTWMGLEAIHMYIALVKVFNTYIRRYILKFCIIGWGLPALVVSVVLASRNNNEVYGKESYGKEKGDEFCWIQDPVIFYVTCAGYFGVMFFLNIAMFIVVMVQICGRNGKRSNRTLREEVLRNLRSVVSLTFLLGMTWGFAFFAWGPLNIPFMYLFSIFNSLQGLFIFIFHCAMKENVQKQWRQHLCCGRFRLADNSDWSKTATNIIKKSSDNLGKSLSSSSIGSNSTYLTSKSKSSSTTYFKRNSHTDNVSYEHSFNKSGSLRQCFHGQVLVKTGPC
T1 sequence (P25024 whole entry): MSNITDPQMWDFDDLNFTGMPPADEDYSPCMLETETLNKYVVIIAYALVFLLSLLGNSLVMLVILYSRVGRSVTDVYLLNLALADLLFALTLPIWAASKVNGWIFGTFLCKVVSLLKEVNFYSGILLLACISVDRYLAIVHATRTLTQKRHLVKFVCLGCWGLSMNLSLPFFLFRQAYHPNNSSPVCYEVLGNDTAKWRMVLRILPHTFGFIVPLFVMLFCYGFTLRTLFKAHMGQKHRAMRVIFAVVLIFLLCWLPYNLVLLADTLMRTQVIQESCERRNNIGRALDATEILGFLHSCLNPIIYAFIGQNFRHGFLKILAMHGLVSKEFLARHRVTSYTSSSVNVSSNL
T4 sequence (Q9HBW9 20-690): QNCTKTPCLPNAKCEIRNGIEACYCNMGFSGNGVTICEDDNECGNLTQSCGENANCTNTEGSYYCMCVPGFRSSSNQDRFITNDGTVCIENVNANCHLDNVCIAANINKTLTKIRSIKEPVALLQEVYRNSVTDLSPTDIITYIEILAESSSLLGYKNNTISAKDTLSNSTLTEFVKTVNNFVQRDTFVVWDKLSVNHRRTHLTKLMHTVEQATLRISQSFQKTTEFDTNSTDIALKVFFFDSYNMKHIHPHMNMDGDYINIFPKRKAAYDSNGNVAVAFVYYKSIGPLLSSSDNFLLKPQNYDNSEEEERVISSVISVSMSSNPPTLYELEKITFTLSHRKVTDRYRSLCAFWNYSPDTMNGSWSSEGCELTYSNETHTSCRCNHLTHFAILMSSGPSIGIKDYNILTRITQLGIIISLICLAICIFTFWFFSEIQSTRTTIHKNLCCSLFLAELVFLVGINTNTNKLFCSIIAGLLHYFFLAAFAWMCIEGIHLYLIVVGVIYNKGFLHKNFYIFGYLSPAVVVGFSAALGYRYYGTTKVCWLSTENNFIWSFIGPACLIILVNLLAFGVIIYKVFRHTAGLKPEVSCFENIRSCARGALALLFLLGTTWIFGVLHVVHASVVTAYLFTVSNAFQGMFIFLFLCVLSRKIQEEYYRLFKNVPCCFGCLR
T5 sequence (P34969 1-445 isoform P34969-2): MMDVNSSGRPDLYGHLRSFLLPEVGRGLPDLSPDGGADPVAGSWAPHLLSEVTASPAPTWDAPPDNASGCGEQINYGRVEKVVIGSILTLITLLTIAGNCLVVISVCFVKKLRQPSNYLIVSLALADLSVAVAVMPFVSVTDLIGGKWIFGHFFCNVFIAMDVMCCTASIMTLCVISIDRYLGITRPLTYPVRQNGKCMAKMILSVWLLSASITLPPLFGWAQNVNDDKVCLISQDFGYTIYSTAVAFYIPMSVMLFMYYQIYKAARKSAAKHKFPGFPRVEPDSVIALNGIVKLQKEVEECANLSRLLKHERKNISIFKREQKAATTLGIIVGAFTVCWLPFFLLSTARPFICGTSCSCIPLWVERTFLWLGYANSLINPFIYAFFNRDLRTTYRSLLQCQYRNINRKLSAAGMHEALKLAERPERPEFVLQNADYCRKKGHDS
T2 sequence (Q6U736 whole entry): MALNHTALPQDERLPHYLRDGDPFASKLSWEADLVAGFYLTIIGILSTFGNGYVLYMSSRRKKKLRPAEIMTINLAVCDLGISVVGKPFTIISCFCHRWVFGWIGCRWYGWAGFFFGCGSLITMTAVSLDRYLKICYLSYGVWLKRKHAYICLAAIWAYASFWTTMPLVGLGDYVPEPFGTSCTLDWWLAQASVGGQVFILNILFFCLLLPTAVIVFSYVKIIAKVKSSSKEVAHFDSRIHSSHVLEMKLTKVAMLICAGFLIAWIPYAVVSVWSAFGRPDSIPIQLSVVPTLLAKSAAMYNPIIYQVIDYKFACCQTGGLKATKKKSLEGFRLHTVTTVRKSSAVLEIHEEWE

With `CCOc1cccc2cc(C(C)NCC3(O)CCCCC3)oc12` (stereo not shown) [O4LE6], the “Fold of Basal” value on 320 non-olfactory GPCRs [1] is 1.143 and 1.163 and 1.159 and 1.512; at 320 non-olfactory GPCRs [3], 0.5649 and 0.8908 and 0.7066 and 0.464; at 320 non-olfactory GPCRs [4], 1.158 and 1.093 and 1.161 and 0.9931. The “GPCRome agonism screen response” value at 320 non-olfactory GPCRs [2] is 0.05197 and 0.3541 and 1.246 and 1.464.

As to `CCOc1cccc2cc([C@@H](C)NCC3(O)CCCCC3)oc12` [O4RE6], at 5HT7A, the “concentration at which the receptor is activated” value was “over 1 μM”. Further, the “β-arrestin2 recruitment response, replicate points of concentration-response curve” value (“β-arrestin2 recruitment response” for short) was -12.5786 and -8.044 and 1.071 and -9.7421 and 32.4405 and 49.1467 and -14.2149 and 16.5223 and -11.2331 and 4.354 and 35.2448 and 10.2419 on 5HT7A (Log[Drug] -8.52); 10.8788 and 4.459 and -14.1005 and -17.9842 and -16.1246 and -21.1449 and -7.127 and 62.1289 and 35.3983 and -32.9912 and 26.9263 and -33.8761 on 5HT7A (Log[Drug] -9); -17.7926 and -13.0806 and -8.59 and 76.7429 and -5.732 and -9.941 and -9.587 and 8.198 and -49.3687 and 45.8761 at 5HT7A (Log[Drug] -9.52); 8.776 and -5.649 and -4.779 and -6.75 and 22.3693 and -13.4231 and 66.8562 and 10.9818 and 67.3785 and -0.5782 and 14.0649 and -7.044 on 5HT7A (Log[Drug] -10); 3.024 and -18.69 and -0.8855 and -5.258 and -47.1876 and -14.9154 and -10.2215 and 7.524 and 59.795 and 14.1475 and 8.932 and -11.705 at 5HT7A (Log[Drug] -10.52); 2.617 and -4.127 and -1.973 and 44.555 and 24.1984 and -23.678 and 55.762 and 41.0711 and -15.762 and -13.3333 and -38.2183 and -14.0059 on 5HT7A (Log[Drug] -11). Further, the “β-arrestin2 recruitment response” value was 10.0328 and 5.163 and -15.1797 and -41.8076 and 36.1292 and 53.417 and 13.0909 and -3.233 and 13.8777 and 47.469 and -14.7611 and -41.4631 at 5HT7A (Log[Drug] -11.52); -10.6692 and 6.787 and -7.578 and 7.025 and -23.6244 and 50.44 and -4.476 and 12.3769 and -7.901 and 14.5015 and 35.0914 and -7.516 at 5HT7A (Log[Drug] -12).

With `CCOc1cccc2cc([C@H](C)NCC3(O)CCCCC3)oc12` [O4SE6], the “concentration at which the receptor is activated” value on 5HT7A was “over 1 μM”. Besides, the “β-arrestin2 recruitment response” value on 5HT7A (Log[Drug] -8.52) was -17.0653 and -8.2658 and 45.2148 and -20.2418 and -21.803 and -0.7194 and -2.896 and -5.6 and 11.1273 and 4.271 and -5.097 and 41.8171; at 5HT7A (Log[Drug] -9), -5.443 and 2.933 and -8.226 and -2.556 and -7.477 and 46.4452 and 15.6099 and 24.9983 and 34.962 and -18.0177 and 28.5192 and 18.5487; at 5HT7A (Log[Drug] -9.52), -12.1477 and -17.9982 and -14.9702 and 11.6094 and 28.1779 and -35.8001 and 6.565 and -15.7686 and -5.626 and -8.555 and 44.6962 and -16.9086; on 5HT7A (Log[Drug] -10) it was 8.096 and 0.4862 and 3.854 and 5.12 and -39.6418 and 11.9538 and 0.1785 and 14.2612 and 32.5752 and 35.9646 and 2.796 and -2.0885; on 5HT7A (Log[Drug] -10.52), -7.874 and -13.6459 and -8.622 and -2.931 and 11.0507 and -27.4126 and -0.1587 and -15.0413 and -19.8744 and -43.7994 and 23.1032 and 11.941; at 5HT7A (Log[Drug] -11), -18.3698 and 12.5825 and -5.609 and -19.6985 and -4.821 and 50.3406 and -7.299 and -5.302 and 7.068 and 22.7847 and 5.345 and 29.9587. In addition, the “β-arrestin2 recruitment response” value on 5HT7A (Log[Drug] -11.52) is -11.7405 and -3.06 and 5.3959 and -7.492 and 32.3027 and 44.3713 and -10.4331 and 15.1471 and 38.5521 and -11.882 and -21.4277 and -18.6431; at 5HT7A (Log[Drug] -12), -10.8669 and -8.214 and -4.091 and -12.7879 and 18.5659 and 87.5029 and 6.479 and 24.6612 and 1.765 and 32.6018 and 45.9115 and -9.546.
